Experimental data taken from US20250241891A1, “TREATMENT OF ANXIETY” (GH RESEARCH IRELAND LIMITED, priority 2022, published 2025).

Tested on: patients with postpartum depression (PPD)
Assay: Clinical trial of inhaled 5-MeO-DMT in postpartum depression (MADRS, BPRS, BIMF, PES, safety)
Description: The single-arm, open-label clinical trial will involve 15 adult female patients with clinically diagnosed postpartum depression (PPD).
The second dose (12 mg) will only be administered if: • a. […] The 6 mg dose was safe and well-tolerated according to the investigator, • c. Any psychoactive effects (PsE) of the prior dose have subsided, and • d. Pre-dose vital parameters and forced expiratory volume in one second (FEV1) are in normal range, or if outside of the normal range, are not clinically significant according to the investigator. • 3. Similarly, a third dose (18 mg) will only be administered if: • a. […] The 12 mg dose was safe and well-tolerated according to the investigator, and • c. Any PsE of the prior dose have subsided, and • d. Pre-dose vital parameters and forced expiratory volume in one second (FEV1) are in normal range, or if outside of the normal range, are not clinically significant according to the investigator.
The patients will be assessed for a peak psychedelic experience (based on a patient-scored visual analogue scale, the PE scale), sedation, and other endpoints after dosing. Follow-up visits are planned for Day 1, and Day 7 after the dosing day.
The following criteria must be met by all patients considered for clinical trial participation: • 1. Is female and in the age range between 18 and 45 years (inclusive) at screening. • 2. Has a body mass index (BMI) in the range of 18.5 and 35 kg/m^2 (inclusive) at screening. • 3. Meets the trial criteria for PPD as assessed by a trial psychiatrist or registered psychologist: • a. Diagnosis of Major Depressive Disorder without psychotic features, confirmed by the Mini-International Neuropsychiatric Interview (MINI), with peri-partum onset that began no earlier than gestation and no later than the first 4 weeks postpartum. • b. Has a Montgomery-Åsberg Depression Rating Scale (MADRS) total score of equal to or greater than 28 at screening and pre-dose on Day 0. • 6. […] Patients must have a negative pregnancy test at screening and on the pre-test day (Day −1). • 5. Is willing to delay start of other antidepressant or anxiety medication until after the end of the trial at Day 7 and agrees to keep any psychotherapy unchanged during the trial.
A potential patient who meets any of the following key exclusion criteria will be excluded from participation in this trial: • 1. Has, based on history, psychiatric assessment, and evaluation of the MINI, a current or prior diagnosis of bipolar disorder, a manic or hypomanic episode, a psychotic disorder, Major Depressive Disorder (MDD) or other mood disorder with psychotic features, obsessive compulsive disorder, post-traumatic stress disorder (PTSD), autism spectrum disorder, borderline personality disorder, schizophrenia, delusional disorder, paranoid personality disorder, schizoaffective disorder, clinically significant intellectual disability, or any other psychiatric comorbidity that renders the patient unsuitable for the trial according to the investigator's judgment. • 2. Has one or more first or second degree relatives with a current or previously diagnosed bipolar disorder, psychotic disorder or other mood disorder (including MDD) with psychotic features. • 3. Is in the judgement of a trial psychiatrist or registered psychologist, at significant risk for suicide based on history, psychiatric assessment, and evaluation of suicidal ideation and suicidal behaviour based on the Columbia-Suicide Severity Rating Scale (C-SSRS). • 4. Has taken anti-depressive medication within 14 days or 5 half-lives (whichever is longer) prior to dosing (exception: within the last 5 weeks in the case of fluoxetine). • 5.

[1] = PPD n=1, IDR 6+12 mg inhaled, 2 hr, baseline 0
[2] = PPD n=1, IDR 6+12 mg inhaled, 2 hr, baseline 3
[3] = PPD n=1, IDR 6+12 mg inhaled, 2 hr, baseline 4
[4] = PPD n=1, IDR 6+12 mg inhaled, 2 hr, baseline 5
[5] = PPD n=1, IDR 6+12 mg inhaled, Day 7, Day 0 score 5
[6] = PPD n=1, IDR 6+12 mg inhaled, Day 7, Day 0 score 6
[7] = PPD n=1, IDR 6+12 mg inhaled, Day 7 vs Day 0
[8] = PPD n=1, IDR 6+12 mg inhaled, day 1, baseline 0
[9] = PPD n=1, IDR 6+12 mg inhaled, day 1, baseline 1
[10] = PPD n=1, IDR 6+12 mg inhaled, day 1, baseline 2
[11] = PPD n=1, IDR 6+12 mg inhaled, day 1, baseline 3
[12] = PPD n=1, IDR 6+12 mg inhaled, day 1, baseline 4
[13] = PPD n=1, IDR 6+12 mg inhaled, day 1, baseline 5

SMILES: COc1ccc2[nH]cc(CCN(C)C)c2c1 [5-MeO-DMT]
- tolerability of the inhalation procedure (PPD n=1): well tolerated with no inhalation-related adverse events
- MADRS remission criteria (MADRS total score equal or less than 10) (PPD n=1, IDR 6+12 mg inhaled): fulfilled
- MADRS response criteria (at least 50% improvement from baseline) (PPD n=1, IDR 6+12 mg inhaled): fulfilled
- reported adverse events (cramping left abdominal pain and headache, Day 0) (PPD n=1, IDR 6+12 mg inhaled): mild, short-lasting and resolved spontaneously
- time to clinical response after administration (PPD n=1, IDR 6+12 mg inhaled): ≤ 2 h
- durability of clinical response (PPD n=1, IDR 6+12 mg inhaled given on one day): sustained over the 7-day follow-up period
- MADRS Concentration Difficulties improvement [1]: 0
- MADRS Concentration Difficulties score [1]: 0
- MADRS Reduced appetite improvement [1]: 0
- MADRS Reduced appetite score [1]: 0
- MADRS Suicidal Thoughts improvement [1]: 0
- MADRS Suicidal Thoughts score [1]: 0
- MADRS Inability to Feel improvement [2]: 3
- MADRS Inability to Feel score [2]: 0
- MADRS Lassitude improvement [2]: 3
- MADRS Lassitude score [2]: 0
- MADRS Pessimistic Thoughts improvement [3]: 4
- MADRS Pessimistic Thoughts score [3]: 0
- MADRS Reported sadness improvement [3]: 4
- MADRS Reported sadness score [3]: 0
- MADRS Apparent sadness improvement [4]: 5
- MADRS Apparent sadness score [4]: 0
- MADRS Inner Tension improvement [4]: 5
- MADRS Inner Tension score [4]: 0
- MADRS Reduced Sleep improvement [4]: 0
- MADRS Reduced Sleep score [4]: 5
- BIMF item 18 score: Anxiety or worry often interferes with my mothering ability (PPD n=1, IDR 6+12 mg inhaled, Day 7, Day 0 score 2): 5
- BIMF item 16 score: I worry about how other people judge me (as a mother) (PPD n=1, IDR 6+12 mg inhaled, Day 7, Day 0 score 3): 5
- BIMF item 13 score: I am taking good care of my physical needs (eating, showering, etc) (PPD n=1, IDR 6+12 mg inhaled, Day 7, Day 0 score 4): 5
- BIMF item 10 score: I trust my own feelings (instincts) when it comes to taking care of my baby [5]: 6
- BIMF item 17 score: I am able to take care of my baby and my other responsibilities [5]: 5
- BIMF item 3 score: I am comfortable with the way I've chosen to feed my baby (either bottle or breast, or both) [6]: 6
- BIMF item 6 score: There are people in my life that I can trust to care for my baby when I need a break [6]: 6
- BIMF item 12 score: I am taking good care of my baby's physical needs (feedings, changing diapers, doctor's appointments) [6]: 6
- BIMF item 14 score: I make good decisions about my baby's health and well being [6]: 6
- BIMF functional domain Adjustment Δ (Day 7) [7]: 1
- BIMF functional domain Infant Care Δ (Day 7) [7]: 0
- BIMF functional domain Management Δ (Day 7) [7]: 5
- BIMF functional domain Mother-Child Interaction Δ (Day 7) [7]: 2
- BIMF functional domain Psychological Well-being Δ (Day 7) [7]: 9
- BIMF functional domain Self Care Δ (Day 7) [7]: 4
- BIMF functional domain Social Support Δ (Day 7) [7]: 1
- BIMF item 1 Δ (Day 7): I am a good mother [7]: 0
- BIMF item 2 Δ (Day 7): I feel rested [7]: 2
- BIMF item 3 Δ (Day 7): I am comfortable with the way I've chosen to feed my baby (either bottle or breast, or both) [7]: 0
- BIMF item 4 Δ (Day 7): My baby and I understand each other [7]: 0
- BIMF item 5 Δ (Day 7): I am able to relax and enjoy time with my baby [7]: 1
- BIMF item 6 Δ (Day 7): There are people in my life that I can trust to care for my baby when I need a break [7]: 0
- BIMF item 8 Δ (Day 7): I am getting enough adult interaction [7]: 0
- BIMF item 9 Δ (Day 7): I am getting enough encouragement from other people [7]: 1
- BIMF item 10 Δ (Day 7): I trust my own feelings (instincts) when it comes to taking care of my baby [7]: 1
- BIMF item 11 Δ (Day 7): I take a little time each week to do something for myself [7]: 1
- BIMF item 12 Δ (Day 7): I am taking good care of my baby's physical needs (feedings, changing diapers, doctor's appointments) [7]: 0
- BIMF item 13 Δ (Day 7): I am taking good care of my physical needs (eating, showering, etc) [7]: 1
- BIMF item 14 Δ (Day 7): I make good decisions about my baby's health and well being [7]: 0
- BIMF item 15 Δ (Day 7): My baby and I are getting into a routine [7]: 1
- BIMF item 16 Δ (Day 7): I worry about how other people judge me (as a mother) [7]: 2
- BIMF item 17 Δ (Day 7): I am able to take care of my baby and my other responsibilities [7]: 0
- BIMF item 18 Δ (Day 7): Anxiety or worry often interferes with my mothering ability [7]: 3
- BIMF item 19 Δ (Day 7): As time goes on, I am getting better at taking care of my baby [7]: 1
- BIMF item 20 Δ (Day 7): I am satisfied with the job I am doing as a new mother [7]: −1
- MADRS Concentration Difficulties improvement [8]: 0
- MADRS Concentration Difficulties score [8]: 0
- MADRS Reduced appetite improvement [8]: 0
- MADRS Reduced appetite score [8]: 0
- MADRS Suicidal Thoughts improvement [8]: 0
- MADRS Suicidal Thoughts score [8]: 0
- BPRS Blunted Affect score [9]: 1
- BPRS Blunted affect improvement [9]: 0
- BPRS Conceptual disorganization improvement [9]: 0
- BPRS Conceptual disorganization score [9]: 1
- BPRS Disorientation improvement [9]: 0
- BPRS Disorientation score [9]: 1
- BPRS Grandiosity improvement [9]: 0
- BPRS Grandiosity score [9]: 1
- BPRS Hallucinatory behaviour improvement [9]: 0
- BPRS Hallucinatory behaviour score [9]: 1
- BPRS Hostility improvement [9]: 0
- BPRS Hostility score [9]: 1
- BPRS Mannerisms and Posturing improvement [9]: 0
- BPRS Mannerisms and Posturing score [9]: 1
- BPRS Motor retardation improvement [9]: 0
- BPRS Motor retardation score [9]: 1
- BPRS Suspiciousness improvement [9]: 0
- BPRS Suspiciousness score [9]: 1
- BPRS Uncooperativeness improvement [9]: 0
- BPRS Uncooperativeness score [9]: 1
- BPRS Unusual Thought Content improvement [9]: 0
- BPRS Unusual Thought Content score [9]: 1
- BPRS Excitement improvement [10]: 1
- BPRS Excitement score [10]: 1
- MADRS Inability to Feel improvement [11]: 3
- MADRS Inability to Feel score [11]: 0
- MADRS Lassitude improvement [11]: 3
- MADRS Pessimistic Thoughts improvement [12]: 4
- MADRS Pessimistic Thoughts score [12]: 0
- MADRS Reported sadness improvement [12]: 4
- MADRS Reported sadness score [12]: 0
- BPRS Emotional Withdrawal score [13]: 1
- BPRS Emotional withdrawal improvement [13]: 4
- MADRS Apparent sadness improvement [13]: 5
- MADRS Apparent sadness score [13]: 0
- MADRS Inner Tension improvement [13]: 5
- MADRS Inner Tension score [13]: 0
